This note sets out measurements from patent publication US20250115654A1, “PHARMACEUTICAL COMPOSITION OF GLP-1 RECEPTOR AND GIP RECEPTOR DUAL AGONIST, AND USE THEREOF” (FUJIAN SHENGDI PHARMACEUTICAL CO., LTD., priority 2021, published 2025).

In one series the target is T1, human GIPR (Homo sapiens, UniProt P48546).
T1 construct: expressed in transfected cells; host or cells: wild-type CHO-K1, transient transfection with hGIP receptor plasmid (Fugene HD)
T1 sequence (P48546 22-466): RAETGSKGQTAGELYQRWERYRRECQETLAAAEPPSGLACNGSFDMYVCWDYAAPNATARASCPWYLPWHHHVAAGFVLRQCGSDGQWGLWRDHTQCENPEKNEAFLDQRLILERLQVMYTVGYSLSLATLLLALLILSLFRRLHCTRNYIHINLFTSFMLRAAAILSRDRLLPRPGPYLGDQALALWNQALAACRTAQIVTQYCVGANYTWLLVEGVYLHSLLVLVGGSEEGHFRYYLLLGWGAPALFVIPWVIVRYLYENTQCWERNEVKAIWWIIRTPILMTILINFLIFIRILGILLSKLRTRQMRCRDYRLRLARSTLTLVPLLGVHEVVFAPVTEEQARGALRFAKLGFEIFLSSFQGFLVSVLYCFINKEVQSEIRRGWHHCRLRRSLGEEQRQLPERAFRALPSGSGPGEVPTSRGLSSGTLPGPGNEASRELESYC
Description: Agonist activity against GIPR, cAMP HTRF in CHO-K1 cells transiently transfected with hGIP receptor. Format: cell-based. On the technique in general: Time-resolved FRET reads energy transfer from a long-lived donor to a nearby acceptor.

For a further series, the target named is human GLP-1R (Homo sapiens, UniProt P43220). Description: Agonist activity against GLP-1R, cAMP HTRF in CHO-K1/GLP-1R/CRE-luc stable cells.
A short description of series [1]: Stability of compounds in human plasma (LC-MS). Format: in vitro ADME. The following applies: human, read-out: Relative content of compounds retained in plasma (%).
Description: 5 μL of each of samples at concentrations of 20 ng/mL, 50 ng/mL, 100 ng/mL, 200 ng/mL, 500 ng/mL, 1000 ng/mL, 2000 ng/mL, 5000 ng/mL, and 10000 ng/mL was added to 45 L of human plasma. The content of the compounds in the samples was determined by the LC-MS method and a standard curve was formed. 5 μL of a 1 mg/mL polypeptide solution was added to 45 μL of human plasma. […] With the content at 0 min as the standard (100%), the relative content of the retained compounds in the samples at other time points was calculated.
[2] abbreviates: Table 6 run, read-out: Activity against human GIPR (EC50 nM).

Where two headings read alike, the source gives them in different places. Numbered stars: 1 amine (or outer) side, 2 acyl side, 3 side chain; on linkers, the order of the positions; unused ones are H or OH. Square brackets hold non-standard residues; d marks the D form. Side chains are listed from the residue outwards. Peptide text beside a SMILES is read from it. * marks the point of attachment. C20 diacid = O=C(O)CCCCCCCCCCCCCCCCCCC(=O)*; γGlu = O=C(O)[C@H](CCC(=O)[*:2])N[*:1]; AEEA = NCCOCCOCC(=O)O; Aib = CC(C)(N)C(=O)O

human GLP-1R, sequence (P43220 24-463): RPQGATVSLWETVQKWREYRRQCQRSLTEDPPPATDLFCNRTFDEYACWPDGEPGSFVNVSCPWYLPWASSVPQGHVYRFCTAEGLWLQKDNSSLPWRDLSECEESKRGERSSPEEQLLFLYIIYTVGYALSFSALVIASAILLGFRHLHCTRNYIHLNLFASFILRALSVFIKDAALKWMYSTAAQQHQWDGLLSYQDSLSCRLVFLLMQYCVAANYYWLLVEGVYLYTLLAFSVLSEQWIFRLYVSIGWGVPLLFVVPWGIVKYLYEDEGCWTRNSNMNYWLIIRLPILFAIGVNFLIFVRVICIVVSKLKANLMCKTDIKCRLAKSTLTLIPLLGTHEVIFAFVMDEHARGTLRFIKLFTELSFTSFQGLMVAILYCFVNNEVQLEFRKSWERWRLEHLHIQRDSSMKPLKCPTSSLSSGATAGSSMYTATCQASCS
Description for human GIPR: Wild-type CHO-K1 cells were collected, and the cell suspension was adjusted to an appropriate density, seeded in a 6-well plate at 2 mL/well, and placed in an incubator at 37° C. with 5% CO2 for adherence culture overnight.

As a reminder, the EC50 is the concentration giving half of the maximal effect. As to `CC[C@H](C)[C@H](NC(=O)[C@H](CCCCNC(=O)COCCOCCNC(=O)COCCOCCNC(=O)CC[C@H](NC(=O)CCCCCCCCCCCCCCCCCCC(=O)O)C(=O)O)NC(=O)[C@H](CCC(=O)O)NC(=O)[C@H](CC(C)C)NC(=O)[C@H](Cc1ccc(O)cc1)NC(=O)[C@@H](NC(=O)[C@H](CO)NC(=O)[C@H](Cc1ccc(O)cc1)NC(=O)[C@H](CC(=O)O)NC(=O)[C@H](CO)NC(=O)[C@@H](NC(=O)[C@H](Cc1ccccc1)NC(=O)[C@@H](NC(=O)CNC(=O)[C@H](CCC(=O)O)NC(=O)C(C)(C)NC(=O)[C@@H](N)Cc1ccc(O)cc1)[C@@H](C)O)[C@@H](C)O)[C@@H](C)CC)C(=O)N[C@@H](C)C(=O)N[C@@H](C)C(=O)N[C@@H](CCC(N)=O)C(=O)N[C@@H](CCC(=O)O)C(=O)N[C@@H](Cc1ccccc1)C(=O)N[C@H](C(=O)N[C@@H](CC(N)=O)C(=O)N[C@@H](Cc1c[nH]c2ccccc12)C(=O)N[C@@H](CC(C)C)C(=O)N[C@H](C(=O)N[C@@H](C)C(=O)NCC(=O)NCC(=O)N1CCC[C@H]1C(=O)N[C@@H](CO)C(=O)N[C@@H](CO)C(=O)NCC(=O)N[C@@H](C)C(=O)N1CCC[C@H]1C(=O)N1CCC[C@H]1C(=O)N1CCC[C@H]1C(=O)N[C@@H](CO)C(N)=O)[C@@H](C)CC)[C@@H](C)CC` [Compound 10] (H-Y[Aib]EGTFTSDYSIYLEK([AEEA-AEEA-γGlu-C20 diacid])IAAQEFINWLIAGGPSSGAPPPS-NH2), the EC50 at human GIPR (setting [2]) is 0.056 nM.

For `CC[C@H](C)[C@H](NC(=O)[C@H](CCCNC(=N)N)NC(=O)[C@H](CCC(=O)O)NC(=O)[C@H](CCCCNC(=O)COCCOCCNC(=O)COCCOCCNC(=O)CC[C@H](NC(=O)CCCCCCCCCCCCCCCCCCC(=O)O)C(=O)O)NC(=O)[C@H](Cc1ccc(O)cc1)NC(=O)[C@@H](NC(=O)[C@H](CO)NC(=O)[C@H](Cc1ccc(O)cc1)NC(=O)[C@H](CC(=O)O)NC(=O)[C@H](CO)NC(=O)[C@@H](NC(=O)[C@H](Cc1ccccc1)NC(=O)[C@@H](NC(=O)CNC(=O)[C@H](CCC(=O)O)NC(=O)C(C)(C)NC(=O)[C@@H](N)Cc1ccc(O)cc1)[C@@H](C)O)[C@@H](C)O)[C@@H](C)CC)C(=O)N[C@@H](C)C(=O)N[C@@H](C)C(=O)N[C@@H](CCC(N)=O)C(=O)N[C@@H](CCC(=O)O)C(=O)N[C@@H](Cc1ccccc1)C(=O)N[C@H](C(=O)N[C@@H](CC(N)=O)C(=O)N[C@@H](Cc1c[nH]c2ccccc12)C(=O)N[C@@H](CC(C)C)C(=O)N[C@H](C(=O)N[C@@H](C)C(=O)NCC(=O)NCC(=O)N1CCC[C@H]1C(=O)N[C@@H](CO)C(=O)N[C@@H](CO)C(=O)NCC(=O)N[C@@H](C)C(=O)N1CCC[C@H]1C(=O)N1CCC[C@H]1C(=O)N1CCC[C@H]1C(=O)N[C@@H](CO)C(N)=O)[C@@H](C)CC)C(C)C` [Compound 13] (H-Y[Aib]EGTFTSDYSIYK([AEEA-AEEA-γGlu-C20 diacid])ERIAAQEFVNWLIAGGPSSGAPPPS-NH2), the EC50 at human GIPR (setting [2]) was determined as 0.13 nM.

Regarding `CC[C@H](C)[C@H](NC(=O)[C@H](CCCCN)NC(=O)[C@H](CCC(=O)O)NC(=O)[C@H](CCCCNC(=O)COCCOCCNC(=O)COCCOCCNC(=O)CC[C@H](NC(=O)CCCCCCCCCCCCCCCCCCC(=O)O)C(=O)O)NC(=O)[C@H](Cc1ccc(O)cc1)NC(=O)[C@@H](NC(=O)[C@H](CO)NC(=O)[C@H](Cc1ccc(O)cc1)NC(=O)[C@H](CC(=O)O)NC(=O)[C@H](CO)NC(=O)[C@@H](NC(=O)[C@H](Cc1ccccc1)NC(=O)[C@@H](NC(=O)CNC(=O)[C@H](CCC(=O)O)NC(=O)C(C)(C)NC(=O)[C@@H](N)Cc1ccc(O)cc1)[C@@H](C)O)[C@@H](C)O)[C@@H](C)CC)C(=O)N[C@@H](C)C(=O)N[C@@H](C)C(=O)N[C@@H](CCC(N)=O)C(=O)N[C@@H](CCC(=O)O)C(=O)N[C@@H](Cc1ccccc1)C(=O)N[C@H](C(=O)N[C@@H](CC(N)=O)C(=O)N[C@@H](Cc1c[nH]c2ccccc12)C(=O)N[C@@H](CC(C)C)C(=O)N[C@H](C(=O)N[C@@H](C)C(=O)NCC(=O)NCC(=O)N1CCC[C@H]1C(=O)N[C@@H](CO)C(=O)N[C@@H](CO)C(=O)NCC(=O)N[C@@H](C)C(=O)N1CCC[C@H]1C(=O)N1CCC[C@H]1C(=O)N1CCC[C@H]1C(=O)N[C@@H](CO)C(N)=O)[C@@H](C)CC)[C@@H](C)CC` [Compound 14] (H-Y[Aib]EGTFTSDYSIYK([AEEA-AEEA-γGlu-C20 diacid])EKIAAQEFINWLIAGGPSSGAPPPS-NH2), the EC50 amounted to 0.13 nM at human GIPR (setting [2]) and 0.013 nM at human GLP-1R.

Regarding `CC[C@H](C)[C@H](NC(=O)[C@H](CCCNC(=N)N)NC(=O)[C@H](CCC(=O)O)NC(=O)[C@H](CCCCNC(=O)COCCOCCNC(=O)COCCOCCNC(=O)CC[C@H](NC(=O)CCCCCCCCCCCCCCCCCCC(=O)O)C(=O)O)NC(=O)[C@H](Cc1ccc(O)cc1)NC(=O)[C@@H](NC(=O)[C@H](CO)NC(=O)[C@H](Cc1ccc(O)cc1)NC(=O)[C@H](CC(=O)O)NC(=O)[C@H](CO)NC(=O)[C@@H](NC(=O)[C@H](Cc1ccccc1)NC(=O)[C@@H](NC(=O)CNC(=O)[C@H](CCC(=O)O)NC(=O)C(C)(C)NC(=O)[C@@H](N)Cc1ccc(O)cc1)[C@@H](C)O)[C@@H](C)O)[C@@H](C)CC)C(=O)N[C@@H](C)C(=O)N[C@@H](C)C(=O)N[C@@H](CCC(N)=O)C(=O)N[C@@H](CCC(=O)O)C(=O)N[C@@H](Cc1ccccc1)C(=O)N[C@H](C(=O)N[C@@H](CC(N)=O)C(=O)N[C@@H](Cc1c[nH]c2ccccc12)C(=O)N[C@@H](CC(C)C)C(=O)N[C@@H](CC(C)C)C(=O)N[C@@H](C)C(=O)NCC(=O)NCC(=O)N1CCC[C@H]1C(=O)N[C@@H](CO)C(=O)N[C@@H](CO)C(=O)NCC(=O)N[C@@H](C)C(=O)N1CCC[C@H]1C(=O)N1CCC[C@H]1C(=O)N1CCC[C@H]1C(=O)N[C@@H](CO)C(N)=O)C(C)C` [Compound 17] (H-Y[Aib]EGTFTSDYSIYK([AEEA-AEEA-γGlu-C20 diacid])ERIAAQEFVNWLLAGGPSSGAPPPS-NH2), the concentration giving a half-maximal response (EC50) at human GIPR (setting [2]) worked out at 0.11 nM.

Turning to `CC[C@H](C)[C@H](NC(=O)[C@H](CC(C)C)NC(=O)[C@H](Cc1c[nH]c2ccccc12)NC(=O)[C@H](CCC(N)=O)NC(=O)[C@@H](NC(=O)[C@H](Cc1ccccc1)NC(=O)[C@H](C)NC(=O)[C@H](CCCCNC(=O)COCCOCCNC(=O)COCCOCCNC(=O)CC[C@H](NC(=O)CCCCCCCCCCCCCCCCCCC(=O)O)C(=O)O)NC(=O)[C@H](CCC(N)=O)NC(=O)[C@H](C)NC(=O)[C@@H](NC(=O)[C@H](CCCCN)NC(=O)[C@H](CC(=O)O)NC(=O)[C@H](CC(C)C)NC(=O)C(C)(C)NC(=O)[C@@H](NC(=O)[C@H](CO)NC(=O)[C@H](Cc1ccc(O)cc1)NC(=O)[C@H](CC(=O)O)NC(=O)[C@H](CO)NC(=O)[C@@H](NC(=O)[C@H](Cc1ccccc1)NC(=O)[C@@H](NC(=O)CNC(=O)[C@H](CCC(=O)O)NC(=O)C(C)(C)NC(=O)[C@@H](N)Cc1ccc(O)cc1)[C@@H](C)O)[C@@H](C)O)[C@@H](C)CC)[C@@H](C)CC)C(C)C)C(=O)N[C@@H](C)C(=O)NCC(=O)NCC(=O)N1CCC[C@H]1C(=O)N[C@@H](CO)C(=O)N[C@@H](CO)C(=O)NCC(=O)N[C@@H](C)C(=O)N1CCC[C@H]1C(=O)N1CCC[C@H]1C(=O)N1CCC[C@H]1C(=O)N[C@@H](CO)C(N)=O` [LY3298176, reference compound], the concentration giving a half-maximal response (EC50) at human GIPR was 0.031 nM. The remaining at 1 h, 0.1 mg/mL in series [1] (60 min) came to 115%. Besides, in series [1] (120 min), the remaining at 2 h, 0.1 mg/mL was 118%. Further, the remaining at 4 h, 0.1 mg/mL in series [1] (240 min) was 113%.
